From patent publication US20230303549A1, “SUBSTITUTED HETEROARYLOXYPYRIDINES, THE SALTS THEREOF AND THEIR USE AS HERBICIDAL AGENTS” (Bayer Aktiengesellschaft, priority 2020, published 2023)

Legend:
Type in all cases: in vivo
[1] = test system: Amaranthus retroflexus (AMARE); experiment: Post-emergence herbicidal efficacy at 320 g/ha, greenhouse pot test; settings: visual rating vs untreated control after about 3 weeks
In short: (§1)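 Applied onto green plant parts as suspension or emulsion at a 600 L/ha water rate, containing 0.5% additive. Potted weeds in sandy loam were treated at one leaf and assessed visually versus controls about three weeks later.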

[2] = test system: Poa annua (POAAN); experiment: as above; settings: visual rating vs untreated control after about 3 weeks
In short: as §1

[3] = test system: Alopecurus myosuroides (ALOMY); experiment: as above; settings: visual rating vs untreated control after about 3 weeks
In short: as §1

[4] = test system: Bassia scoparia (KCHSC); experiment: as above; settings: visual rating vs untreated control after about 3 weeks
In short: as §1

[5] = test system: Stellaria media (STEME); experiment: as above; settings: visual rating vs untreated control after about 3 weeks
In short: as §1

[6] = test system: Abutilon theophrasti (ABUTH); experiment: as above; settings: visual rating vs untreated control after about 3 weeks
In short: as §1

[7] = test system: Veronica persica (VERPE); experiment: as above; settings: 320 g/ha, visual rating vs untreated control after about 3 weeks
In short: as §1

[8] = test system: Viola tricolor (VIOTR); experiment: Post-emergence herbicidal efficacy at 80 g/ha, greenhouse pot test; settings: visual rating vs untreated control after about 3 weeks
Procedure: (§2) Seeds of monocotyledonous and dicotyledonous weeds and crop plants were placed in sandy loam in plastic or organic planting pots, covered with soil and cultivated in a greenhouse under controlled growth conditions. 2 to 3 weeks after sowing, the test plants were treated at the one-leaf stage. The compounds of the invention, formulated in the form of wettable powders (WP) or as emulsion concentrates (EC), were then sprayed onto the green parts of the plants as aqueous suspension or emulsion with addition of 0.5% additive at a water application rate of 600 l/ha (converted). After the test plants had been kept in the greenhouse under optimum growth conditions for about 3 weeks, the activity of the preparations was rated visually in comparison to untreated controls. For example, 100% activity=the plants have died, 0% activity=like control plants. Tables B1 to B6 below show the effects of selected compounds of the general formula (I) according to Table 1 on various harmful plants and an application rate corresponding to 80 g/ha, which were obtained by the experimental procedure mentioned above.

[9] = test system: Amaranthus retroflexus (AMARE); experiment: as above; settings: visual rating vs untreated control after about 3 weeks
Procedure: as §2

[10] = test system: Echinochloa crus-galli (ECHCG); experiment: Pre-emergence herbicide efficacy at 320 g/ha, greenhouse pot test; settings: visual scoring vs untreated control after about 3 weeks
In short: (§3)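 Seeds sown in sandy loam, covered; formulated compound (WP or EC, 0.5% additive) applied to soil surface at 600 L/ha water; pots kept in greenhouse under good growth conditions; visual % damage scored at about 3 weeks relative to untreated.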

[11] = test system: Setaria viridis (SETVI); experiment: as above; settings: visual scoring vs untreated control after about 3 weeks
In short: as §3

[12] = test system: Lolium rigidum (LOLRI); experiment: as above; settings: visual scoring vs untreated control after about 3 weeks
In short: as §3

[13] = test system: Amaranthus retroflexus (AMARE); experiment: as above; settings: visual scoring vs untreated control after about 3 weeks
In short: as §3

[14] = test system: Poa annua (POAAN); experiment: as above; settings: visual scoring vs untreated control after about 3 weeks
In short: as §3

[15] = test system: Alopecurus myosuroides (ALOMY); experiment: as above; settings: visual scoring vs untreated control after about 3 weeks
In short: as §3

[16] = test system: Matricaria inodora (MATIN); experiment: as above; settings: visual scoring vs untreated control after about 3 weeks
In short: as §3

[17] = test system: Bassia scoparia (KCHSC); experiment: as above; settings: 320 g/ha, visual scoring vs untreated control after about 3 weeks
In short: as §3

[18] = test system: Stellaria media (STEME); experiment: as above; settings: visual scoring vs untreated control after about 3 weeks
In short: as §3

[19] = test system: Abutilon theophrasti (ABUTH); experiment: as above; settings: visual scoring vs untreated control after about 3 weeks
In short: as §3

[20] = test system: Veronica persica (VERPE); experiment: as above; settings: visual scoring vs untreated control after about 3 weeks
In short: as §3

[21] = test system: Setaria viridis (SETVI); experiment: Pre-emergence herbicide efficacy at 80 g/ha, greenhouse pot test; settings: visual scoring vs untreated control after about 3 weeks
Description: (§4) Seeds of monocotyledonous and dicotyledonous weed plants and crop plants were placed in plastic or organic planting pots and covered with soil. The compounds of the invention, formulated in the form of wettable powders (WP) or as emulsion concentrates (EC), were then applied to the surface of the covering soil as aqueous suspension or emulsion with addition of 0.5% additive at a water application rate of […] (converted). After the treatment, the pots were placed in a greenhouse and kept under good growth conditions for the test plants. After about 3 weeks, the effect of the preparations was scored visually in comparison with untreated controls as percentages. For example, 100% activity=the plants have died, 0% activity=like control plants. Tables D1 to D12 below show the effects of selected compounds of the general formula (I) according to Table 1 on various harmful plants and an application rate corresponding to 80 g/ha, which were obtained by the experimental procedure mentioned above.

[22] = test system: Viola tricolor (VIOTR); experiment: as above; settings: visual scoring vs untreated control after about 3 weeks
Description: as §4

[23] = test system: Amaranthus retroflexus (AMARE); experiment: as above; settings: visual scoring vs untreated control after about 3 weeks
Description: as §4

[24] = test system: Polygonum convolvulus (POLCO); experiment: as above; settings: visual scoring vs untreated control after about 3 weeks
Description: as §4

[25] = test system: Alopecurus myosuroides (ALOMY); experiment: as above; settings: visual scoring vs untreated control after about 3 weeks
Description: as §4

[26] = test system: Matricaria inodora (MATIN); experiment: as above; settings: visual scoring vs untreated control after about 3 weeks
Description: as §4

[27] = test system: Abutilon theophrasti (ABUTH); experiment: as above; settings: visual scoring vs untreated control after about 3 weeks
Description: as §4

[28] = test system: Veronica persica (VERPE); experiment: as above; settings: visual scoring vs untreated control after about 3 weeks
Description: as §4

[29] = test system: Alopecurus myosuroides (ALOMY); experiment: Post-emergence herbicidal efficacy at 80 g/ha, greenhouse pot test; settings: visual rating vs untreated control after about 3 weeks
Procedure: as §2

[30] = test system: Digitaria sanguinalis (DIGSA); experiment: Pre-emergence herbicide efficacy at 320 g/ha, greenhouse pot test; settings: visual scoring vs untreated control after about 3 weeks
In short: as §3

| SMILES | Post-emergence efficacy against Amaranthus retroflexus (AMARE) [1] [%] | Post-emergence efficacy against Alopecurus myosuroides (ALOMY) [3] [%] | Post-emergence action against Stellaria media (STEME) [5] [%] | Post-emergence efficacy against Veronica persica (VERPE) [7] [%] | Post-emergence efficacy against Viola tricolor (VIOTR) [8] [%] | Post-emergence efficacy against Amaranthus retroflexus (AMARE) [9] [%] | Pre-emergence efficacy against Echinochloa crus-galli (ECHCG) [10] [%] | Pre-emergence efficacy against Setaria viridis (SETVI) [11] [%] | Pre-emergence efficacy against Lolium rigidum (LOLRI) [12] [%] | Pre-emergence efficacy against Amaranthus retroflexus (AMARE) [13] [%] | Pre-emergence efficacy against Poa annua (POAAN) [14] [%] | Pre-emergence efficacy against Alopecurus myosuroides (ALOMY) [15] [%] | Pre-emergence efficacy against Matricaria inodora (MATIN) [16] [%] | Pre-emergence efficacy against Bassia scoparia (KCHSC) [17] [%] | Pre-emergence efficacy against Stellaria media (STEME) [18] [%] | Pre-emergence efficacy against Abutilon theophrasti (ABUTH) [19] [%] | Pre-emergence efficacy against Veronica persica (VERPE) [20] [%] | Pre-emergence efficacy against Viola tricolor (VIOTR) [22] [%] | Pre-emergence efficacy against Amaranthus retroflexus (AMARE) [23] [%] | Pre-emergence efficacy against Polygonum convolvulus (POLCO) [24] [%] | also measured |
| --- | --- | --- | --- | --- | --- | --- | --- | --- | --- | --- | --- | --- | --- | --- | --- | --- | --- | --- | --- | --- | --- |
| Cc1cc(C)c(-c2cc(C(F)F)no2)c(Oc2ncc(Cl)cn2)n1 [Example I-1] | 100 | 90 | 100 | 100 | 90 | 100 | 100 | 100 | 90 | 100 | 100 | 100 | 100 | 90 | 100 | 100 | 100 | 90 | 100 | 90 | Post-emergence efficacy against Poa annua (POAAN) [2]: 90%; Post-emergence efficacy against Bassia scoparia (KCHSC) [4]: 90%; Post-emergence efficacy against Abutilon theophrasti (ABUTH) [6]: 90%; Pre-emergence efficacy against Setaria viridis (SETVI) [21]: 80%; Pre-emergence efficacy against Alopecurus myosuroides (ALOMY) [25]: 90%; Pre-emergence efficacy against Matricaria inodora (MATIN) [26]: 100%; Pre-emergence efficacy against Abutilon theophrasti (ABUTH) [27]: 80%; Pre-emergence efficacy against Veronica persica (VERPE) [28]: 90% |
| Cc1cc(C)c(-c2cc(C(F)(F)F)no2)c(Oc2ncc(Cl)cn2)n1 [Example I-2] | 100 | 90 | 100 | 100 | 90 | 100 | 100 | 100 | 90 | 100 | 100 | 100 | 100 | 90 | 100 | 100 | 100 | 90 | 100 | 80 | Post-emergence efficacy against Alopecurus myosuroides (ALOMY) [29]: 90%; Pre-emergence efficacy against Digitaria sanguinalis (DIGSA) [30]: 100%; Pre-emergence efficacy against Alopecurus myosuroides (ALOMY) [25]: 80%; Pre-emergence efficacy against Abutilon theophrasti (ABUTH) [27]: 90%; Pre-emergence efficacy against Veronica persica (VERPE) [28]: 90% |
